Experimental data reported in US20040018582A1, “Genes and gene products that confer susceptibility to vancomycin derivative antibiotics and methods and assays for identifying bifunctional glycopeptide antibiotics using same” (priority 2001, published 2004).
In brackets after ≈: the same amount, converted by molar mass.

Legend:
Format in all cases: cell-based, Escherichia coli
[1] = test system: wild-type strain BE100 (E. coli imp); assay: MIC, standard microdilution in LB medium; settings: 35° C., 22 hours
Method: (§1) The imp mutation alters the permeability of the outer membrane and confers sensitivity to vancomycin and its carbohydrate derivatives as well as to moenomycin. BE100 is an isolate of BAS849 (MC4100 ΔlamB106 imp 4213). B. A. Sampson et al., Genetics 122, 491(1989).
(§2) MICs were determined against strains grown in LB medium in a standard microdilution format.

[2] = test system: mutant strain BE103; assay: MIC, standard microdilution in LB medium; settings: 35° C., 22 hours
Method: as §1, §2

[3] = test system: mutant strain BE101; assay: MIC, standard microdilution in LB medium; settings: 35° C., 22 hours
Method: as §1, §2

[4] = test system: mutant strain BE102; assay: MIC, standard microdilution in LB medium; settings: 35° C., 22 hours
Method: as §1, §2

[5] = test system: mutant strains BE101, BE102, BE103 compared to wild-type BE100; assay: Comparison of antibiotic effectiveness in mutant (yfgL) strains versus wild-type strain; settings: for resistance or sensitivity of the mutants: mutants vs parent strain BE100, by MIC
Method: The present inventions are directed to methods of identifying a compound having transglycosylase inhibitory activity. The method includes contacting the compound with cells having the wild type yfgL gene and then measuring the antibiotic effectiveness and contacting the compound with cells having the mutant yfgL gene and measuring the antibiotic effectiveness the compound.
as §2
Some antibiotics, for example the β-lactams, show a decrease in their bactericidal effectiveness against slow-growing cells. E. Tuomanen et al., J. Gen. Microbiol. 132, 1297 (1986). […] R. Kerns et al., J. Am. Chem. Soc. 122, 12608 (2000).
Examples of transpeptidase inhibitors include, but are not limited to, ampicillin, penicillin or cefoxitin (p-lactams). Compounds that inhibit cytoplasmic steps of peptidoglycan synthesis include, but are not limited to, fosfomycin and cycloserine.

[6] = test system: mutant strain BE101; assay: Time-kill curves at MIC; settings: mutant BE101, vancomycin […]
Method: (§3) FIGS. 1C and 1D represent time-kill curves of wild-type BE100 (C) and mutant strain BE101 (D) in the presence of antibiotics at their MICs. A standard microdilution assay was performed in LB. Samples were removed and serial dilutions were plated onto antibiotic-free agar after 15, 30, 60, 120 and 240 minutes of exposure to each antibiotic.

[7] = test system: wild-type BE100; assay: Time-kill curves at MIC; settings: wild-type BE100, vancomycin 0.8 μg/ml
Method: as §3

Compound	minimum inhibitory concentration (MIC) [1]	minimum inhibitory concentration (MIC) [2]	minimum inhibitory concentration (MIC) [3]	minimum inhibitory concentration (MIC) [4]	times less active in resistant strains compared to the wild-type strain ([5]; all three resistant strains vs wild-type)	resistance or sensitivity of the mutants [5]	survival on exposure at MIC [6]	survival on exposure at MIC [7]	step of peptidoglycan synthesis blocked, found using wild type/mutant yfgL assay [5]
Desleucyl chlorobiphenyl vancomycin	25 µg/mL	>125 µg/mL	>125 µg/mL	>125 µg/mL					
Moenomycin	0.03 µg/mL	3.2 µg/mL	1.6 µg/mL	0.8 µg/mL	27-100 times				
CC[C@H]1OC(=O)[C@H](C)[C@@H](O[C@H]2C[C@@](C)(OC)[C@@H](O)[C@H](C)O2)[C@H](C)[C@@H](O[C@@H]2O[C@H](C)C[C@H](N(C)C)[C@H]2O)[C@](C)(O)C[C@@H](C)C(=O)[C@H](C)[C@@H](O)[C@]1(C)O [erythromycin]						sensitive			
CC1(C)S[C@@H]2[C@H](NC(=O)Cc3ccccc3)C(=O)N2[C@H]1C(=O)O [Penicillin G]	3.2 µg/mL (≈ 9.57 µM)	3.2 µg/mL (≈ 9.57 µM)	3.2 µg/mL (≈ 9.57 µM)	1.6 µg/mL (≈ 4.78 µM)					
CN[C@H](CC(C)C)C(=O)N[C@H]1C(=O)N[C@@H](CC(N)=O)C(=O)N[C@H]2C(=O)N[C@H]3C(=O)N[C@H](C(=O)N[C@H](C(=O)O)c4cc(O)cc(O)c4-c4cc3ccc4O)[C@H](O)c3ccc(c(Cl)c3)Oc3cc2cc(c3O[C@@H]2O[C@H](CO)[C@@H](O)[C@H](O)[C@H]2O[C@H]2C[C@](C)(N)[C@H](O)[C@H](C)O2)Oc2ccc(cc2Cl)[C@H]1O [Vancomycin]	0.8 µg/mL (≈ 0.552 µM)	1.6 µg/mL (≈ 1.1 µM)	1.6 µg/mL (≈ 1.1 µM)	1.6 µg/mL (≈ 1.1 µM)		did not show any resistance	prevented growth of all the strains but did not kill them	prevented growth of all the strains but did not kill them	
gentamicin						sensitive			
Teicoplanin	0.25 µg/mL	4 µg/mL	16 µg/mL	3 µg/mL		resistant			block the transglycosylation step of peptidoglycan synthesis
